The values that follow come from US20240174690A1, “ANNULATED 2-AMINO-3-CYANO THIOPHENES AND DERIVATIVES FOR THE TREATMENT OF CANCER” (BOEHRINGER INGELHEIM INTERNATIONAL GMBH, priority 2021, published 2024).

Data set [1] deals with KRAS G12V-dependent Ba/F3 cells. Briefly: Ba/F3 proliferation assay, KRAS G12V.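 Also: proliferation IC50 in KRAS G12V-dependent Ba/F3 cells read by AlamarBlue.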 In kind it is cell-based. The conditions noted are these: Mus musculus, BaF3, 72 h, AlamarBlue. Put shortly:
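Proliferation of mutant-KRAS-driven Ba/F3 cells cultured without IL-3 is followed with AlamarBlue after compound addition. Curves are fitted from duplicate wells.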

For data set [2], the system named is SK-CO-1 cells. Briefly: SK-CO-1 CTG proliferation assay (120 h) (CRC, G12V). It is filed as cell-based. The conditions noted are these: Homo sapiens; SK-CO-1 cells (CRC, G12V), CTG 120 h. How it is done:
SK-CO-1 CTG Proliferation Assay (120 h) (CRC, G12V)
SK-CO-1 cells (ATCC HTB-39) are dispensed into 384-well plates, flat and clear bottom (Greiner, PNr. 781091) at a density of 500 cells per well in 60 μL EMEM (Sigma M5650)+10% Fetal Calf Serum (HyClone, PNr.: SH30084.03) and incubated at 37° C. in a CO2 incubator overnight. The next day, compounds (10 mM stock in DMSO) are added with the ECHO acoustic liquid handler system (Beckman Coulter), including DMSO controls. Plates are incubated for 120 h, and cell viability is measured using CellTiter-Glo luminescent cell viability reagent (Promega product code G7570). Viability (stated as percent of control) is defined as relative luminescence units RLU of each well divided by the RLU of cells in DMSO controls. IC50 values are determined from viability measurements by non-linear regression using a four-parameter model.

The target of data set [3] is CYP3A4 (Homo sapiens (Human), UniProt P08684). Briefly: Mechanism based inhibition of CYP3A4 assay (MBI 3A4). It is filed as in vitro ADME. The conditions noted are these: hydroxy-midazolam formation after 30 min vs 0 min preincubation, 25 uM, human liver microsomes. The protocol:
After preincubation, the incubate is diluted 1:10 and the substrate midazolam is added for the main incubation (15 min). The main incubation is quenched with acetonitrile and the formation of hydroxy-midazolam is quantified via LC/MS-MS. The formation of hydroxy-midazolam from the 30 min preincubation relative to the formation from the 0 min preincubation is used as a readout. Values of less than 100% mean that the substrate midazolam is metabolized to a lower extent upon 30 min preincubation compared to 0 min preincubation. In general low effects upon 30 min preincubation are desired (corresponding to values close to 100%/not different to the values determined with water control).

In data set [4] the test system is NCI-H2122 cells. Briefly: NCI-H2122 CTG proliferation assay (120 h) (NSCLC, G12C). In kind it is cell-based. The conditions noted are these: Homo sapiens. The protocol: NCI-H2122 CTG Proliferation Assay (120 h) (NSCLC, G12C)
The CTG assay is designed to measure quantitatively the proliferation of NCI-H2122 cells (ATCC CRL-5985), using the CellTiter Glow Assay Kit (Promega G7571). Cells are grown in RPMI medium (ATCC) supplemented with Fetal Calf Serum (Life Technologies, Gibco BRL, Cat. No. 10270-106). On “day 0” 200 NCI-H2122 cells are seeded in 60 μL RPMI ATCC+10% FCS+Penstrep in a black 384-well plate, flat and clear bottom (Greiner, PNr. 781091). Cells are then incubated in the plates at 37° C. in a CO2 incubator overnight. On day 1, compounds (10 mM stock in DMSO) are added with the ECHO acoustic liquid handler system (Beckman Coulter), including DMSO controls. Plates are incubated for 120 h, and cell viability is measured using CellTiter-Glo luminescent cell viability reagent (Promega product code G7570). Viability (stated as percent of control) is defined as relative luminescence units RLU of each well divided by the RLU of cells in DMSO controls. IC50 values are determined from viability measurements by non-linear regression using a four parameter model.

Sequence of CYP3A4 (P08684 whole entry): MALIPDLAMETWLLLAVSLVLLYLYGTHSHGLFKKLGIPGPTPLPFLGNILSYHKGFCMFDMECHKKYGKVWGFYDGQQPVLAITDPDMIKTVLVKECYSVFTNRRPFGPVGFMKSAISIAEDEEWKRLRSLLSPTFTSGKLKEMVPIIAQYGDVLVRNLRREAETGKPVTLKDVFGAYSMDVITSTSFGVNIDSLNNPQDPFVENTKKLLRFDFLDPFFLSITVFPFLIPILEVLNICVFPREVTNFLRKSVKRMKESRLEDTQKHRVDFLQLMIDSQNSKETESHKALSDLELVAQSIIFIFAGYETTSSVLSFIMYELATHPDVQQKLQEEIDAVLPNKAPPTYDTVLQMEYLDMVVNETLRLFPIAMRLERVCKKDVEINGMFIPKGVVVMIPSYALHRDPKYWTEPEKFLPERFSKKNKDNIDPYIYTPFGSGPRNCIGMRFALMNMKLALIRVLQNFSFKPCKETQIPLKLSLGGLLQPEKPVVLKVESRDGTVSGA

As to `C[C@H](O)Cn1ccc(-c2cc(O[C@@H](C)[C@@H]3CCCN3C)nc(-c3noc4c3CCC[C@@]43CCCc4sc(N)c(C#N)c43)n2)n1` [II-112], the 50% inhibitory concentration (IC50) in data set [1] was 6 nM; in data set [2] it was 34 nM; in data set [4], 197 nM. Besides, in data set [3], the “MBI 3A4” value turned out to be 81%.

For the compound `C[C@H](Oc1cc(N2CCNC[C@]23CCOC3)nc(-c2noc3c2CCC[C@@]32CCCc3sc(N)c(C#N)c32)n1)[C@@H]1CCCN1C` [II-50], the results for the IC50 in data set [1], in data set [2] and in data set [4] were 393 nM, 802 nM and 2680 nM, respectively. Moreover, the “MBI 3A4” value in data set [3] was 54%.

As to `C[C@H](Oc1cc(-c2cnn(C)c2)nc(-c2noc3c2CCC[C@@]32CCCc3sc(N)c(C#N)c32)n1)[C@@H]1CCCN1C` [II-74], the values for the IC50 in data set [1], in data set [2] and in data set [4] were 11 nM, 52 nM and 2860 nM, respectively. Besides, in data set [3], the “MBI 3A4” value came out at 81%.

Turning to `C[C@H](Oc1cc(-n2cncc3ccnc2-3)nc(-c2noc3c2CCC[C@@]32CCCc3sc(N)c(C#N)c32)n1)[C@@H]1CCCN1C` [II-105], the IC50 turned out to be 6 nM in data set [1], 31 nM in data set [2] and 847 nM in data set [4]. The “MBI 3A4” value in data set [3] was 79%.

Regarding `C[C@H](Oc1cc(N2C[C@H](C)N[C@@H](C)C2)nc(-c2noc3c2CCC[C@@]32CCCc3sc(N)c(C#N)c32)n1)[C@@H]1CCCN1C` [II-56], the IC50 in data set [1] came out at 166 nM; in data set [2], 554 nM; in data set [4] it was 3190 nM. Further, the “MBI 3A4” value in data set [3] was determined as 73%.

As to `C[C@H](Oc1cc(N2CC[C@H](N(C)C)C2)nc(-c2noc3c2CCC[C@@]32CCCc3sc(N)c(C#N)c32)n1)[C@@H]1CCCN1C` [II-49], the IC50 amounted to 304 nM in data set [1], 872 nM in data set [2] and 2840 nM in data set [4]. In addition, in data set [3], the “MBI 3A4” value was 75%.

With `C[C@H](Oc1cc(N2C[C@H](C)N[C@@H](C)C2)nc(-c2onc3c2CCC[C@@]32CCCc3sc(N)c(C#N)c32)n1)[C@@H]1CCCN1C` [I-6], the half-maximal inhibitory concentration (IC50) in data set [1] was 316 nM; in data set [2], 2080 nM; in data set [4], 3380 nM. For the same compound, the “MBI 3A4” value in data set [3] was determined as 79%.

Regarding `CO[C@@H]1C[C@@H]([C@H](C)Oc2cc(-n3ccnc3)nc(-c3noc4c3CCC[C@@]43CCCc4sc(N)c(C#N)c43)n2)N(C)C1` [II-58], the results for the half-inhibitory concentration (IC50) in data set [1], in data set [2] and in data set [4] were 9 nM, 90 nM and 904 nM, respectively. Besides, the “MBI 3A4” value in data set [3] is on record as 68%.

In the case of `C[C@H](Oc1cc(-n2cc3c(n2)CCNC3)nc(-c2noc3c2CCC[C@@]32CCCc3sc(N)c(C#N)c32)n1)[C@@H]1CCCN1C` [II-53], the IC50 in data set [1] was 285 nM; in data set [2], 566 nM; in data set [4] it was 3690 nM. Also, the “MBI 3A4” value in data set [3] stood at 80%.

Take `C[C@H](Oc1cc(N2Cc3cnn(C)c3C2)nc(-c2noc3c2CCC[C@@]32CCCc3sc(N)c(C#N)c32)n1)[C@@H]1CCCN1C` [II-63]: the results for the half-maximal inhibitory concentration (IC50) in data set [1], in data set [2] and in data set [4] were 49 nM, 134 nM and 3390 nM, respectively. For the same compound, in data set [3], the “MBI 3A4” value came out at 74%.

With `Cc1cn(C)nc1-c1cc(O[C@@H](C)[C@@H]2CCCN2C)nc(-c2noc3c2CCC[C@@]32CCCc3sc(N)c(C#N)c32)n1` [II-68], the IC50 in data set [1] amounted to 23 nM; in data set [2], 5570 nM; in data set [4] it was 1230 nM. Further, in data set [3], the “MBI 3A4” value is reported as 74%.

With `CO[C@@H]1C[C@@H]([C@H](C)Oc2cc(-c3ccn(C)n3)nc(-c3noc4c3CCC[C@@]43CCCc4sc(N)c(C#N)c43)n2)N(C)C1` [II-91], the IC50 in data set [1] came out at 8 nM; in data set [2], 78 nM; in data set [4], 1090 nM. For the same compound, the “MBI 3A4” value in data set [3] is reported as 68%.

On to `C[C@H](Oc1cc(N2CCNC3(CC3)C2)nc(-c2noc3c2CCC[C@@]32CCCc3sc(N)c(C#N)c32)n1)[C@@H]1CCCN1C` [II-54], for which the half-maximal inhibitory concentration (IC50) was found to be 157 nM in data set [1], 464 nM in data set [2] and 1770 nM in data set [4]. In addition, the “MBI 3A4” value in data set [3] came to 31%.

`C[C@H](Oc1cc(-n2ccnc2)nc(-c2noc3c2CCC[C@@]32CCCc3sc(N)c(C#N)c32)n1)[C@@H]1C[C@@H](F)CN1C` [II-120]: the concentration for half-maximal inhibition (IC50) came to 13 nM in data set [1], 126 nM in data set [2] and 1090 nM in data set [4]. Further, the “MBI 3A4” value in data set [3] is 71%.

On to `C[C@H](Oc1cc(-c2ccncc2)nc(-c2noc3c2CCC[C@@]32CCCc3sc(N)c(C#N)c32)n1)[C@@H]1CCCN1C` [II-78], for which the IC50 stood at 14 nM in data set [1], 84 nM in data set [2] and 2140 nM in data set [4]. Besides, the “MBI 3A4” value in data set [3] is 48%.

In the case of `C[C@H](Oc1cc(-c2cc[nH]n2)nc(-c2noc3c2CCC[C@@]32CCCc3sc(N)c(C#N)c32)n1)[C@@H]1CCCN1C` [II-71], the IC50 in data set [1] was 8 nM; in data set [2], 18 nM; in data set [4], 933 nM. For the same compound, in data set [3], the “MBI 3A4” value is recorded as 79%.

On to `C[C@H](Oc1cc(-c2cnsc2)nc(-c2noc3c2CCC[C@@]32CCCc3sc(N)c(C#N)c32)n1)[C@@H]1CCCN1C` [II-111], for which the concentration for half-maximal inhibition (IC50) in data set [1] was 4 nM; in data set [2] it was 51 nM; in data set [4], 858 nM. Moreover, in data set [3], the “MBI 3A4” value is reported as 76%.

With `C[C@H](Oc1cc(-n2cc(C3CC3)nn2)nc(-c2noc3c2CCC[C@@]32CCCc3sc(N)c(C#N)c32)n1)[C@@H]1CCCN1C` [II-118], the half-maximal inhibitory concentration (IC50) was 26 nM in data set [1], 3860 nM in data set [2] and 1010 nM in data set [4]. Moreover, the “MBI 3A4” value in data set [3] is listed as 45%.

As for `C[C@H](Oc1cc(N2CCC[C@H](O)C2)nc(-c2noc3c2CCC[C@@]32CCCc3sc(N)c(C#N)c32)n1)[C@@H]1CCCN1C` [II-57], the values for the IC50 in data set [1], in data set [2] and in data set [4] were 45 nM, 87 nM and 916 nM, respectively. For the same compound, in data set [3], the “MBI 3A4” value was 61%.

For `C[C@H](Oc1cc(C2=CCOCC2)nc(-c2noc3c2CCC[C@@]32CCCc3sc(N)c(C#N)c32)n1)[C@@H]1CCCN1C` [II-67], the half-maximal inhibitory concentration (IC50) in data set [1] is 15 nM; in data set [2], 60 nM; in data set [4], 1300 nM. The “MBI 3A4” value in data set [3] amounted to 72%.

Turning to `C[C@H](Oc1cc(-c2ccn(-c3ccccc3)n2)nc(-c2noc3c2CCC[C@@]32CCCc3sc(N)c(C#N)c32)n1)[C@@H]1CCCN1C` [II-89], the IC50 in data set [1] is 18 nM; in data set [2], 198 nM; in data set [4], 1530 nM. In addition, the “MBI 3A4” value in data set [3] was found to be 73%.

As for `C[C@H](Oc1cc(N2CCN(C)C2=O)nc(-c2noc3c2CCC[C@@]32CCCc3sc(N)c(C#N)c32)n1)[C@@H]1CCCN1C` [II-75], the IC50 is 14 nM in data set [1], 23 nM in data set [2] and 3130 nM in data set [4]. Further, the “MBI 3A4” value in data set [3] was 57%.

Turning to `C[C@H](Oc1cc(-n2cncn2)nc(-c2noc3c2CCC[C@@]32CCCc3sc(N)c(C#N)c32)n1)[C@@H]1CCCN1C` [II-70], the figures for the half-inhibitory concentration (IC50) in data set [1], in data set [2] and in data set [4] were 5 nM, 28 nM and 891 nM, respectively. For the same compound, the “MBI 3A4” value in data set [3] turned out to be 64%.

Turning to `C[C@H](Oc1cc(N2CCN(C)CC2)nc(-c2noc3c2CCC[C@@]32CCCc3sc(N)c(C#N)c32)n1)[C@@H]1CCCN1C` [II-55], the half-maximal inhibitory concentration (IC50) worked out at 302 nM in data set [1], 754 nM in data set [2] and 4910 nM in data set [4]. Also, the “MBI 3A4” value in data set [3] came to 88%.

With `C[C@H](Oc1cc([C@@H]2CCOC2)nc(-c2noc3c2CCC[C@@]32CCCc3sc(N)c(C#N)c32)n1)[C@@H]1CCCN1C` [II-94], the values for the IC50 in data set [1], in data set [2] and in data set [4] were 3 nM, 19 nM and 834 nM, respectively. Moreover, the “MBI 3A4” value in data set [3] is given as 71%.

As for `C[C@H](Oc1cc(N2CC[C@H](N(C)C)C2)nc(-c2onc3c2CCC[C@@]32CCCc3sc(N)c(C#N)c32)n1)[C@@H]1CCCN1C` [I-11], the IC50 worked out at 416 nM in data set [1], 530 nM in data set [2] and 2560 nM in data set [4]. For the same compound, in data set [3], the “MBI 3A4” value was found to be 78%.
